Test results reported in patent publication US11109593B2, “Isoxazolin-5-one derivative and herbicide containing same as active ingredient” (HOKKO CHEMICAL INDUSTRY CO., LTD., priority 2017, dated 2021).

Tested on: Scirpus juncoides
Assay: Test Example 2: herbicidal effect test by treatment during growing period in paddy rice cultivation (seven days after seeding)
Type: in vivo
Conditions: 120 g/10a active ingredient, assessed 14 days after treatment, dry weight vs untreated area
Method: (§1) This test was conducted in a double system per one agent solution concentration area, and the herbicidal rates (%) were determined by the following equation (Math. 1) on 14 days after the treatment with the agents. Herbicidal Rate (%)={1-(Average Dry Weight (g) of Plant of Treated Area)/(Average Dry Weight (g) of Plant of Untreated Area)}×100 [Math. 1]
(§2) Herbicidal Effect Test by Treatment During Growing Period in Paddy Rice Cultivation
(§3) Wagner pots with an area of 1/10000 ares were filled with a paddy soil, and after adding water, a compound fertilizer (N:P:K=17:17:17) was mixed, followed by soil puddling. Then, Echinochloa crus-galli, broad leaf weeds (Lindernia pyxidaria and Monochoria vaginalis) and Scirpus juncoides, 30 seeds each, were sown in a depth of 0 to 1 cm. Water was poured immediately after seeding, and the water depth was kept at about 3 cm. The subsequent management was conducted in a glass greenhouse. Emulsions prepared using the compounds in Table 4 below according to Formulation Example 5 were diluted with water seven days after seeding, and a certain amount of the water-diluted agent solutions were dropped. The converted amount of the applied active ingredient corresponded to 120 g per 10 ares. The test was conducted in a double system per one agent solution concentration area, and the herbicidal rates (%) were determined by the equation (Math. 1) on 14 days after the treatment with the agents. […] The compound numbers in Table 4 are the same as those in Table 1 and Table 2 above.

Going from `CC(C)n1oc(=O)c(Cc2ccccc2N(S(=O)(=O)C(F)(F)F)S(=O)(=O)C(F)(F)F)c1C1CC1` [Compound 1-84] to `Cc1c(Cc2ccccc2N(S(=O)(=O)C(F)(F)F)S(=O)(=O)C(F)(F)F)c(=O)on1C(C)c1ccc(F)cc1` (centres unmarked) [Compound 1-1031], the “Herbicidal rate (%) Scirpus juncoides” value rises from 70% to 100%.

Going from `Cn1oc(=O)c(Cc2ccccc2NS(=O)(=O)C(F)(F)F)c1C(F)(F)F` [Compound 1-78] to `Cc1c(Cc2cc(F)ccc2NS(=O)(=O)C(F)(F)F)c(=O)on1Cc1ccccc1` [Compound 1-31], the “Herbicidal rate (%) Scirpus juncoides” value falls from 80% to 70%.

Tested on: Echinochloa crus-galli
Assay: as above
Type: in vivo
Conditions: 120 g/10a active ingredient, assessed 14 days after treatment, dry weight vs untreated area
Method: as §1, §2, §3

Going from `CC(C)n1oc(=O)c(Cc2ccccc2N(S(=O)(=O)C(F)(F)F)S(=O)(=O)C(F)(F)F)c1C1CC1` [Compound 1-84] to `Cc1c(Cc2ccccc2N(S(=O)(=O)C(F)(F)F)S(=O)(=O)C(F)(F)F)c(=O)on1C(C)c1ccc(F)cc1` (centres unmarked) [Compound 1-1031], the “Herbicidal rate (%) Echinochloa crus-galli” value rises from 40% to 90%.

First: Cn1oc(=O)c(Cc2ccccc2NS(=O)(=O)C(F)(F)F)c1C(F)(F)F [Compound 1-78]
Second: Cc1c(Cc2cc(F)ccc2NS(=O)(=O)C(F)(F)F)c(=O)on1Cc1ccccc1 [Compound 1-31]
The “Herbicidal rate (%) Echinochloa crus-galli” value of the first is lower: 40% for the first, 50% for the second.

Tested on: broad leaf weeds (Lindernia pyxidaria and Monochoria vaginalis)
Assay: as above
Type: in vivo
Conditions: Lindernia pyxidaria, 120 g/10a active ingredient, assessed 14 days after treatment, dry weight vs untreated area
Method: as §1, §2, §3

First: CC(C)n1oc(=O)c(Cc2ccccc2N(S(=O)(=O)C(F)(F)F)S(=O)(=O)C(F)(F)F)c1C1CC1 [Compound 1-84]
Second: Cc1c(Cc2ccccc2N(S(=O)(=O)C(F)(F)F)S(=O)(=O)C(F)(F)F)c(=O)on1C(C)c1ccc(F)cc1 (centres unmarked) [Compound 1-1031]
The “Herbicidal rate (%) Lindernia pyxidaria” value of the first is lower: 40% for the first, 100% for the second.

First: Cn1oc(=O)c(Cc2ccccc2NS(=O)(=O)C(F)(F)F)c1C(F)(F)F [Compound 1-78]
Second: Cc1c(Cc2cc(F)ccc2NS(=O)(=O)C(F)(F)F)c(=O)on1Cc1ccccc1 [Compound 1-31]
The “Herbicidal rate (%) Lindernia pyxidaria” value of the first is lower: 40% for the first, 60% for the second.

Same assay, conditions: Monochoria vaginalis, 120 g/10a active ingredient, assessed 14 days after treatment, dry weight vs untreated area

Compared with `CC(C)n1oc(=O)c(Cc2ccccc2N(S(=O)(=O)C(F)(F)F)S(=O)(=O)C(F)(F)F)c1C1CC1` [Compound 1-84], `Cc1c(Cc2ccccc2N(S(=O)(=O)C(F)(F)F)S(=O)(=O)C(F)(F)F)c(=O)on1C(C)c1ccc(F)cc1` (centres unmarked) [Compound 1-1031] is higher in “Herbicidal rate (%) Monochoria vaginalis” value: 40% for the first, 100% for the second.

Going from `Cn1oc(=O)c(Cc2ccccc2NS(=O)(=O)C(F)(F)F)c1C(F)(F)F` [Compound 1-78] to `Cc1c(Cc2cc(F)ccc2NS(=O)(=O)C(F)(F)F)c(=O)on1Cc1ccccc1` [Compound 1-31], the “Herbicidal rate (%) Monochoria vaginalis” value rises from 60% to 80%.

Tested on: Scirpus juncoides
Assay: Test Example 1: herbicidal effect test by treatment of rice paddy soil (immediately after seeding)
Type: in vivo
Conditions: 120 g/10a active ingredient, dry weight vs untreated area, 14 days after treatment
Method: (§4) Herbicidal Effect Test by Treatment of Rice Paddy Soil
(§5) Wagner pots with an area of 1/10000 ares were filled with a paddy soil, and after adding water, a compound fertilizer (N:P:K=17:17:17) was added, followed by soil puddling. Then, Echinochloa crus-galli, broad leaf weeds (Lindernia pyxidaria and Monochoria vaginalis) and Scirpus juncoides, 30 seeds each, were sown in a depth of 0 to 1 cm. Water was poured immediately after seeding, and the water depth was kept at about 3 cm. The subsequent management was conducted in a glass greenhouse. Immediately after that, emulsions prepared using the compounds in Table 3 below according to Formulation Example 5 were diluted with water, and a certain amount of the water-diluted agent solutions were dropped. The converted amount of the applied active ingredient corresponded to 120 g per 10 ares.
as §1
(§6) The compound numbers in Table 3 are the same as those in Table 1 and Table 2 above.

Going from `CC(C)n1oc(=O)c(Cc2ccccc2N(S(=O)(=O)C(F)(F)F)S(=O)(=O)C(F)(F)F)c1C1CC1` [Compound 1-84] to `Cc1c(Cc2ccccc2N(S(=O)(=O)C(F)(F)F)S(=O)(=O)C(F)(F)F)c(=O)on1C(C)c1ccc(F)cc1` (centres unmarked) [Compound 1-1031], the “Herbicidal rate (%) Scirpus juncoides” value rises from 80% to 100%.

Going from `Cn1oc(=O)c(Cc2ccccc2NS(=O)(=O)C(F)(F)F)c1C(F)(F)F` [Compound 1-78] to `Cc1c(Cc2cc(F)ccc2NS(=O)(=O)C(F)(F)F)c(=O)on1Cc1ccccc1` [Compound 1-31], the “Herbicidal rate (%) Scirpus juncoides” value rises from 70% to 90%.

Tested on: Echinochloa crus-galli
Assay: as above
Type: in vivo
Conditions: 120 g/10a active ingredient, dry weight vs untreated area, 14 days after treatment
Method: as §4, §5, §1, §6

First: CC(C)n1oc(=O)c(Cc2ccccc2N(S(=O)(=O)C(F)(F)F)S(=O)(=O)C(F)(F)F)c1C1CC1 [Compound 1-84]
Second: Cc1c(Cc2ccccc2N(S(=O)(=O)C(F)(F)F)S(=O)(=O)C(F)(F)F)c(=O)on1C(C)c1ccc(F)cc1 (centres unmarked) [Compound 1-1031]
The “Herbicidal rate (%) Echinochloa crus-galli” value of the first is lower: 80% for the first, 100% for the second.

Going from `Cn1oc(=O)c(Cc2ccccc2NS(=O)(=O)C(F)(F)F)c1C(F)(F)F` [Compound 1-78] to `Cc1c(Cc2cc(F)ccc2NS(=O)(=O)C(F)(F)F)c(=O)on1Cc1ccccc1` [Compound 1-31], the “Herbicidal rate (%) Echinochloa crus-galli” value rises from 40% to 90%.

Tested on: broad leaf weeds (Lindernia pyxidaria and Monochoria vaginalis)
Assay: as above
Type: in vivo
Conditions: Lindernia pyxidaria, 120 g/10a active ingredient, dry weight vs untreated area, 14 days after treatment
Method: as §4, §5, §1, §6

Going from `CC(C)n1oc(=O)c(Cc2ccccc2N(S(=O)(=O)C(F)(F)F)S(=O)(=O)C(F)(F)F)c1C1CC1` [Compound 1-84] to `Cc1c(Cc2ccccc2N(S(=O)(=O)C(F)(F)F)S(=O)(=O)C(F)(F)F)c(=O)on1C(C)c1ccc(F)cc1` (centres unmarked) [Compound 1-1031], the “Herbicidal rate (%) Lindernia pyxidaria” value rises from 70% to 100%.

Going from `Cn1oc(=O)c(Cc2ccccc2NS(=O)(=O)C(F)(F)F)c1C(F)(F)F` [Compound 1-78] to `Cc1c(Cc2cc(F)ccc2NS(=O)(=O)C(F)(F)F)c(=O)on1Cc1ccccc1` [Compound 1-31], the “Herbicidal rate (%) Lindernia pyxidaria” value rises from 50% to 90%.

Same assay, conditions: Monochoria vaginalis, 120 g/10a active ingredient, dry weight vs untreated area, 14 days after treatment

Going from `CC(C)n1oc(=O)c(Cc2ccccc2N(S(=O)(=O)C(F)(F)F)S(=O)(=O)C(F)(F)F)c1C1CC1` [Compound 1-84] to `Cc1c(Cc2ccccc2N(S(=O)(=O)C(F)(F)F)S(=O)(=O)C(F)(F)F)c(=O)on1C(C)c1ccc(F)cc1` (centres unmarked) [Compound 1-1031], the “Herbicidal rate (%) Monochoria vaginalis” value rises from 70% to 100%.

Compared with `Cn1oc(=O)c(Cc2ccccc2NS(=O)(=O)C(F)(F)F)c1C(F)(F)F` [Compound 1-78], `Cc1c(Cc2cc(F)ccc2NS(=O)(=O)C(F)(F)F)c(=O)on1Cc1ccccc1` [Compound 1-31] is higher in “Herbicidal rate (%) Monochoria vaginalis” value: 50% for the first, 80% for the second.
